# Measurements reported in the NIST ThermoML archive (doi:10.1016/j.jct.2008.01.017).
# Numbers after ± are expanded uncertainties.
# Tests used:
# [1] = 293.15 K, 101.33 kPa, Liquid
# [2] = refractive index (Na D-line) (dimensionless); conditions: 293.15 K; 101.33 kPa; Liquid; Standard Abbe refractometry
# [3] = excess molar enthalpy (molar enthalpy of mixing); xn = mol fraction of the nth substance listed; conditions: 101 kPa, Liquid, Flow calorimetry
smiles,measurement,setting,value
CC#N [acetonitrile],mass density,[1]; Vibrating tube method,784.6 ± 0.2 kg/m3
same,refractive index,[2],1.3441 ± 0.0007
CCCCCCCCO [octan-1-ol] + CC#N,excess molar enthalpy,"[3]; 298.15 K, x1 = 0.0476",0.161 ± 0.00406 kcal/mol
same,excess molar enthalpy,"[3]; 298.15 K, x1 = 0.0971",0.282 ± 0.00621 kcal/mol
same,excess molar enthalpy,"[3]; 298.15 K, x1 = 0.1479",0.375 ± 0.00621 kcal/mol
same,excess molar enthalpy,"[3]; 298.15 K, x1 = 0.1998",0.449 ± 0.00717 kcal/mol
same,excess molar enthalpy,"[3]; 298.15 K, x1 = 0.2521",0.502 ± 0.00789 kcal/mol
same,excess molar enthalpy,"[3]; 298.15 K, x1 = 0.3044",0.541 ± 0.0086 kcal/mol
same,excess molar enthalpy,"[3]; 298.15 K, x1 = 0.3562",0.566 ± 0.00908 kcal/mol
same,excess molar enthalpy,"[3]; 298.15 K, x1 = 0.407",0.58 ± 0.00908 kcal/mol
same,excess molar enthalpy,"[3]; 298.15 K, x1 = 0.471",0.583 ± 0.00932 kcal/mol
same,excess molar enthalpy,"[3]; 298.15 K, x1 = 0.5316",0.565 ± 0.00884 kcal/mol
same,excess molar enthalpy,"[3]; 298.15 K, x1 = 0.5882",0.539 ± 0.0086 kcal/mol
same,excess molar enthalpy,"[3]; 298.15 K, x1 = 0.6879",0.459 ± 0.00741 kcal/mol
same,excess molar enthalpy,"[3]; 298.15 K, x1 = 0.7685",0.369 ± 0.00598 kcal/mol
same,excess molar enthalpy,"[3]; 298.15 K, x1 = 0.802",0.328 ± 0.00526 kcal/mol
same,excess molar enthalpy,"[3]; 298.15 K, x1 = 0.8567",0.245 ± 0.00406 kcal/mol
same,excess molar enthalpy,"[3]; 298.15 K, x1 = 0.8975",0.176 ± 0.00311 kcal/mol
same,excess molar enthalpy,"[3]; 298.15 K, x1 = 0.9375",0.117 ± 0.00287 kcal/mol
same,excess molar enthalpy,"[3]; 313.15 K, x1 = 0.063",0.205 ± 0.00478 kcal/mol
same,excess molar enthalpy,"[3]; 313.15 K, x1 = 0.1288",0.361 ± 0.00598 kcal/mol
same,excess molar enthalpy,"[3]; 313.15 K, x1 = 0.1966",0.487 ± 0.00789 kcal/mol
same,excess molar enthalpy,"[3]; 313.15 K, x1 = 0.2652",0.568 ± 0.00908 kcal/mol
same,excess molar enthalpy,"[3]; 313.15 K, x1 = 0.3335",0.614 ± 0.0098 kcal/mol
same,excess molar enthalpy,"[3]; 313.15 K, x1 = 0.4003",0.635 ± 0.01 kcal/mol
same,excess molar enthalpy,"[3]; 313.15 K, x1 = 0.4647",0.635 ± 0.01 kcal/mol
same,excess molar enthalpy,"[3]; 313.15 K, x1 = 0.5259",0.62 ± 0.0098 kcal/mol
same,excess molar enthalpy,"[3]; 313.15 K, x1 = 0.583",0.592 ± 0.00932 kcal/mol
same,excess molar enthalpy,"[3]; 313.15 K, x1 = 0.6357",0.551 ± 0.00884 kcal/mol
same,excess molar enthalpy,"[3]; 313.15 K, x1 = 0.6837",0.501 ± 0.00789 kcal/mol
same,excess molar enthalpy,"[3]; 313.15 K, x1 = 0.7268",0.452 ± 0.00717 kcal/mol
same,excess molar enthalpy,"[3]; 313.15 K, x1 = 0.7653",0.404 ± 0.00645 kcal/mol
same,excess molar enthalpy,"[3]; 313.15 K, x1 = 0.7992",0.359 ± 0.00574 kcal/mol
same,excess molar enthalpy,"[3]; 313.15 K, x1 = 0.8288",0.315 ± 0.00526 kcal/mol
same,excess molar enthalpy,"[3]; 313.15 K, x1 = 0.8762",0.236 ± 0.00406 kcal/mol
same,excess molar enthalpy,"[3]; 313.15 K, x1 = 0.9349",0.124 ± 0.00311 kcal/mol
same,excess molar enthalpy,"[3]; 323.15 K, x1 = 0.0633",0.218 ± 0.00526 kcal/mol
same,excess molar enthalpy,"[3]; 323.15 K, x1 = 0.1295",0.397 ± 0.00669 kcal/mol
same,excess molar enthalpy,"[3]; 323.15 K, x1 = 0.1975",0.541 ± 0.0086 kcal/mol
same,excess molar enthalpy,"[3]; 323.15 K, x1 = 0.2663",0.613 ± 0.0098 kcal/mol
same,excess molar enthalpy,"[3]; 323.15 K, x1 = 0.3347",0.655 ± 0.0103 kcal/mol
same,excess molar enthalpy,"[3]; 323.15 K, x1 = 0.4017",0.672 ± 0.0105 kcal/mol
same,excess molar enthalpy,"[3]; 323.15 K, x1 = 0.4661",0.669 ± 0.0105 kcal/mol
same,excess molar enthalpy,"[3]; 323.15 K, x1 = 0.5273",0.651 ± 0.0103 kcal/mol
same,excess molar enthalpy,"[3]; 323.15 K, x1 = 0.5844",0.619 ± 0.0098 kcal/mol
same,excess molar enthalpy,"[3]; 323.15 K, x1 = 0.637",0.575 ± 0.00908 kcal/mol
same,excess molar enthalpy,"[3]; 323.15 K, x1 = 0.6849",0.529 ± 0.00837 kcal/mol
same,excess molar enthalpy,"[3]; 323.15 K, x1 = 0.7279",0.478 ± 0.00765 kcal/mol
same,excess molar enthalpy,"[3]; 323.15 K, x1 = 0.7663",0.428 ± 0.00693 kcal/mol
same,excess molar enthalpy,"[3]; 323.15 K, x1 = 0.8001",0.383 ± 0.00621 kcal/mol
same,excess molar enthalpy,"[3]; 323.15 K, x1 = 0.8296",0.335 ± 0.0055 kcal/mol
same,excess molar enthalpy,"[3]; 323.15 K, x1 = 0.8768",0.248 ± 0.0043 kcal/mol
same,excess molar enthalpy,"[3]; 323.15 K, x1 = 0.9352",0.131 ± 0.00335 kcal/mol
CCCCCCCO [heptan-1-ol],mass density,[1],822.3 ± 0.7 kg/m3
same,refractive index,[2],1.4245 ± 0.0007
CCCCCCCCO [octan-1-ol],mass density,[1],825.8 ± 0.6 kg/m3
same,refractive index,[2],1.4293 ± 0.0007
CCCCCCCO [heptan-1-ol] + CC#N,excess molar enthalpy,"[3]; 298.15 K, x1 = 0.0529",0.141 ± 0.00335 kcal/mol
same,excess molar enthalpy,"[3]; 298.15 K, x1 = 0.1128",0.261 ± 0.00454 kcal/mol
same,excess molar enthalpy,"[3]; 298.15 K, x1 = 0.1738",0.365 ± 0.00598 kcal/mol
same,excess molar enthalpy,"[3]; 298.15 K, x1 = 0.2352",0.435 ± 0.00693 kcal/mol
same,excess molar enthalpy,"[3]; 298.15 K, x1 = 0.2962",0.485 ± 0.00765 kcal/mol
same,excess molar enthalpy,"[3]; 298.15 K, x1 = 0.3561",0.516 ± 0.00813 kcal/mol
same,excess molar enthalpy,"[3]; 298.15 K, x1 = 0.4143",0.53 ± 0.00837 kcal/mol
same,excess molar enthalpy,"[3]; 298.15 K, x1 = 0.4701",0.532 ± 0.00837 kcal/mol
same,excess molar enthalpy,"[3]; 298.15 K, x1 = 0.5231",0.523 ± 0.00837 kcal/mol
same,excess molar enthalpy,"[3]; 298.15 K, x1 = 0.573",0.505 ± 0.00813 kcal/mol
same,excess molar enthalpy,"[3]; 298.15 K, x1 = 0.6194",0.479 ± 0.00765 kcal/mol
same,excess molar enthalpy,"[3]; 298.15 K, x1 = 0.6623",0.449 ± 0.00717 kcal/mol
same,excess molar enthalpy,"[3]; 298.15 K, x1 = 0.7015",0.416 ± 0.00669 kcal/mol
same,excess molar enthalpy,"[3]; 298.15 K, x1 = 0.7692",0.349 ± 0.00574 kcal/mol
same,excess molar enthalpy,"[3]; 298.15 K, x1 = 0.8038",0.303 ± 0.00502 kcal/mol
same,excess molar enthalpy,"[3]; 298.15 K, x1 = 0.8621",0.221 ± 0.00382 kcal/mol
same,excess molar enthalpy,"[3]; 298.15 K, x1 = 0.9271",0.116 ± 0.00287 kcal/mol
same,excess molar enthalpy,"[3]; 313.15 K, x1 = 0.0698",0.186 ± 0.0043 kcal/mol
same,excess molar enthalpy,"[3]; 313.15 K, x1 = 0.1417",0.326 ± 0.00526 kcal/mol
same,excess molar enthalpy,"[3]; 313.15 K, x1 = 0.2146",0.43 ± 0.00693 kcal/mol
same,excess molar enthalpy,"[3]; 313.15 K, x1 = 0.2872",0.504 ± 0.00789 kcal/mol
same,excess molar enthalpy,"[3]; 313.15 K, x1 = 0.3584",0.545 ± 0.0086 kcal/mol
same,excess molar enthalpy,"[3]; 313.15 K, x1 = 0.427",0.56 ± 0.00884 kcal/mol
same,excess molar enthalpy,"[3]; 313.15 K, x1 = 0.4923",0.561 ± 0.00884 kcal/mol
same,excess molar enthalpy,"[3]; 313.15 K, x1 = 0.5533",0.548 ± 0.0086 kcal/mol
same,excess molar enthalpy,"[3]; 313.15 K, x1 = 0.6096",0.52 ± 0.00813 kcal/mol
same,excess molar enthalpy,"[3]; 313.15 K, x1 = 0.6608",0.481 ± 0.00765 kcal/mol
same,excess molar enthalpy,"[3]; 313.15 K, x1 = 0.707",0.438 ± 0.00693 kcal/mol
same,excess molar enthalpy,"[3]; 313.15 K, x1 = 0.7482",0.392 ± 0.00621 kcal/mol
same,excess molar enthalpy,"[3]; 313.15 K, x1 = 0.7845",0.348 ± 0.00574 kcal/mol
same,excess molar enthalpy,"[3]; 313.15 K, x1 = 0.8163",0.304 ± 0.00502 kcal/mol
same,excess molar enthalpy,"[3]; 313.15 K, x1 = 0.8439",0.26 ± 0.0043 kcal/mol
same,excess molar enthalpy,"[3]; 313.15 K, x1 = 0.8642",0.228 ± 0.00382 kcal/mol
same,excess molar enthalpy,"[3]; 313.15 K, x1 = 0.9283",0.121 ± 0.00287 kcal/mol
same,excess molar enthalpy,"[3]; 323.15 K, x1 = 0.0704",0.19 ± 0.00454 kcal/mol
same,excess molar enthalpy,"[3]; 323.15 K, x1 = 0.1429",0.348 ± 0.00574 kcal/mol
same,excess molar enthalpy,"[3]; 323.15 K, x1 = 0.2161",0.469 ± 0.00741 kcal/mol
same,excess molar enthalpy,"[3]; 323.15 K, x1 = 0.2891",0.541 ± 0.0086 kcal/mol
same,excess molar enthalpy,"[3]; 323.15 K, x1 = 0.3605",0.574 ± 0.00908 kcal/mol
same,excess molar enthalpy,"[3]; 323.15 K, x1 = 0.4293",0.585 ± 0.00932 kcal/mol
same,excess molar enthalpy,"[3]; 323.15 K, x1 = 0.4946",0.58 ± 0.00908 kcal/mol
same,excess molar enthalpy,"[3]; 323.15 K, x1 = 0.5555",0.565 ± 0.00884 kcal/mol
same,excess molar enthalpy,"[3]; 323.15 K, x1 = 0.6117",0.54 ± 0.0086 kcal/mol
same,excess molar enthalpy,"[3]; 323.15 K, x1 = 0.6629",0.498 ± 0.00789 kcal/mol
same,excess molar enthalpy,"[3]; 323.15 K, x1 = 0.7089",0.452 ± 0.00717 kcal/mol
same,excess molar enthalpy,"[3]; 323.15 K, x1 = 0.7499",0.404 ± 0.00645 kcal/mol
same,excess molar enthalpy,"[3]; 323.15 K, x1 = 0.786",0.359 ± 0.00574 kcal/mol
same,excess molar enthalpy,"[3]; 323.15 K, x1 = 0.8177",0.315 ± 0.00526 kcal/mol
same,excess molar enthalpy,"[3]; 323.15 K, x1 = 0.8451",0.273 ± 0.00454 kcal/mol
same,excess molar enthalpy,"[3]; 323.15 K, x1 = 0.8642",0.242 ± 0.00406 kcal/mol
same,excess molar enthalpy,"[3]; 323.15 K, x1 = 0.9283",0.133 ± 0.00311 kcal/mol
